From BigSolDB 2.1

O=c1cc(-c2ccc(O)cc2)oc2cc(O)cc(O)c12
solubility (mole fraction)
Details | in acetone | in ethanol | in ethyl acetate | in methanol | in n-butanol | in n-propanol | in water
288.2 K | 0.000338 | 0.000244 | 0.000172 | 0.000118 | 0.000478 | 0.000343 | 7e-07
298.2 K | 0.000367 | 0.000295 | 0.000239 | 0.000148 | 0.000568 | 0.000401 | 1.03e-06
308.2 K | 0.000451 | 0.000346 | 0.000323 | 0.000179 | 0.0007 | 0.000473 | 1.57e-06
318.2 K | 0.00054 | 0.000397 | 0.000442 | 0.000219 | 0.000822 | 0.000564 | 2.11e-06
328.2 K | 0.000654 | 0.000449 | 0.000548 | 0.000254 | 0.000934 | 0.000677 | 2.81e-06
